Experimental findings from paper PMC10492836, “Chemical-induced phase transition and global conformational reorganization of chromatin” (Nature Communications, 2023) are described below.

As a reminder, the pKd is the negative decadic logarithm of the Kd, by convention in mol/L. High values mean a low Kd, low ones a high Kd.

The assay deals with T1, histone H1.
T1 construct: Recombinant histone H1 immobilized on CM5 chip
In words: SPR (Biacore 8K, […] Langmuir fit); supported by in vitro co-condensation with H1-CFP. In kind it is binding. Background: Surface plasmon resonance follows binding to a sensor surface in real time, without labels.

pKd: −log10 of the molar value.

For `COc1cccc2c1C(=O)c1c(O)c3c(c(O)c1C2=O)C[C@@](O)(C(=O)CO)C[C@@H]3O[C@H]1C[C@H](N)[C@H](O)[C@H](C)O1` [adriamycin], the pKd is 5.71.
